From ChEMBL document CHEMBL4706524, “Discovery of sulfonyl hydrazone derivative as a new selective PDE4A and PDE4D inhibitor by lead-optimization approach on the prototype LASSBio-448: In vitro and in vivo preclinical studies” (Eur J Med Chem, 2020) come the findings set out here.

The conditions of series [1]: pampa, 8 h.
Series [2] is described as follows: Chemical stability of the compound in phosphate buffer at pH 7.4 measured upto 120 mins by HPLC-DAD analysis. The series is classed as physicochemical. As to conditions: pH 7.4, 2 h.
In series [3] the target is T1, 3',5'-cyclic-AMP phosphodiesterase 4D (Homo sapiens, UniProt Q08499). Nature of the series: Inhibition of human recombinant PDE4D3 using FAM-cAMP as substrate at 10 uM measured after 1 hr by IMAP TR-FRET assay. For orientation: In TR-FRET formats the signal depends on donor and acceptor labels being close together.
T1 sequence (Q08499 whole entry): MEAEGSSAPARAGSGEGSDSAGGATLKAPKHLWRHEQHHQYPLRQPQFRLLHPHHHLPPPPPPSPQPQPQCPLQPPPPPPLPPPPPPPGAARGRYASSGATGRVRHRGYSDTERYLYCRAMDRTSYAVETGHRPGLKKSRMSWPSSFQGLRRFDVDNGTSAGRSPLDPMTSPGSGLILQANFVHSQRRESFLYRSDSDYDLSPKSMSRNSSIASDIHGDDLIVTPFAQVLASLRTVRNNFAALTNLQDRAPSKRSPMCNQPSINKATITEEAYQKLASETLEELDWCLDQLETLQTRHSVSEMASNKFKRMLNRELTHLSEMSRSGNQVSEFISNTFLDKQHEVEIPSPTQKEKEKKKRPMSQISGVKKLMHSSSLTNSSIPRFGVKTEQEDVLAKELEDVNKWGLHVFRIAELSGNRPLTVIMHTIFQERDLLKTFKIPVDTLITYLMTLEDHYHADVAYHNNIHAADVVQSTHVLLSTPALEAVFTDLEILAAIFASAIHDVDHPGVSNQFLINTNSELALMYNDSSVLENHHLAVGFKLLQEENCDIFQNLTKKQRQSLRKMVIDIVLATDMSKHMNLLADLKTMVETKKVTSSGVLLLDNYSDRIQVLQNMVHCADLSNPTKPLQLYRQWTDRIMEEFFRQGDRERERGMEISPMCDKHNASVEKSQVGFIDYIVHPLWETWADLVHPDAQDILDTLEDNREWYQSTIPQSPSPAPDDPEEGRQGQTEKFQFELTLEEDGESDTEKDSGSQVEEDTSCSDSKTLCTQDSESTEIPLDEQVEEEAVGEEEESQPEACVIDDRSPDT
For series [4], the target named is 3',5'-cyclic-AMP phosphodiesterase 4C (Homo sapiens, UniProt Q08493). Kind of series: Inhibition of human recombinant PDE4C using FAM-cAMP as substrate at 10 uM measured after 1 hr by IMAP TR-FRET assay.
Sequence of 3',5'-cyclic-AMP phosphodiesterase 4C (Q08493 whole entry): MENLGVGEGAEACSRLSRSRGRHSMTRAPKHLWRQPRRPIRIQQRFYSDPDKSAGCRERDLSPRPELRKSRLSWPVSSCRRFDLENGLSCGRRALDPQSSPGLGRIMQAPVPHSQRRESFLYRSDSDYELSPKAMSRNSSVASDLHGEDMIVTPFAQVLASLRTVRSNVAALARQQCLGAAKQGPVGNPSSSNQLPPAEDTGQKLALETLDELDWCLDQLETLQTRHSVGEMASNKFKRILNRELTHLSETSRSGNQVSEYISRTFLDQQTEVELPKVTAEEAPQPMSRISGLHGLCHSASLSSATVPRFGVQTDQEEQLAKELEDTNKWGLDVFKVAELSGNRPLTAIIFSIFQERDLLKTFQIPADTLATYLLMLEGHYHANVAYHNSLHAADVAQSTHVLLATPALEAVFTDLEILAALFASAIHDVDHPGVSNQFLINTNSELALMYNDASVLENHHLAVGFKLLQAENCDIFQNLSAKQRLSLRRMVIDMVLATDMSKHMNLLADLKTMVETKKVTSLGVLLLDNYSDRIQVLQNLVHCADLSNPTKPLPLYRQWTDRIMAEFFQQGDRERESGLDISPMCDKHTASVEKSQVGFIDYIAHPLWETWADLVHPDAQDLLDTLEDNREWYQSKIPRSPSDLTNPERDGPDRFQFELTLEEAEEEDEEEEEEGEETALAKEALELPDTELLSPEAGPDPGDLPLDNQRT
For series [5], the target named is 3',5'-cyclic-AMP phosphodiesterase 4B (Homo sapiens, UniProt Q07343). Kind of series: Inhibition of human recombinant PDE4B1 using FAM-cAMP as substrate at 10 uM measured after 1 hr by IMAP TR-FRET assay.
Sequence of 3',5'-cyclic-AMP phosphodiesterase 4B (Q07343 whole entry): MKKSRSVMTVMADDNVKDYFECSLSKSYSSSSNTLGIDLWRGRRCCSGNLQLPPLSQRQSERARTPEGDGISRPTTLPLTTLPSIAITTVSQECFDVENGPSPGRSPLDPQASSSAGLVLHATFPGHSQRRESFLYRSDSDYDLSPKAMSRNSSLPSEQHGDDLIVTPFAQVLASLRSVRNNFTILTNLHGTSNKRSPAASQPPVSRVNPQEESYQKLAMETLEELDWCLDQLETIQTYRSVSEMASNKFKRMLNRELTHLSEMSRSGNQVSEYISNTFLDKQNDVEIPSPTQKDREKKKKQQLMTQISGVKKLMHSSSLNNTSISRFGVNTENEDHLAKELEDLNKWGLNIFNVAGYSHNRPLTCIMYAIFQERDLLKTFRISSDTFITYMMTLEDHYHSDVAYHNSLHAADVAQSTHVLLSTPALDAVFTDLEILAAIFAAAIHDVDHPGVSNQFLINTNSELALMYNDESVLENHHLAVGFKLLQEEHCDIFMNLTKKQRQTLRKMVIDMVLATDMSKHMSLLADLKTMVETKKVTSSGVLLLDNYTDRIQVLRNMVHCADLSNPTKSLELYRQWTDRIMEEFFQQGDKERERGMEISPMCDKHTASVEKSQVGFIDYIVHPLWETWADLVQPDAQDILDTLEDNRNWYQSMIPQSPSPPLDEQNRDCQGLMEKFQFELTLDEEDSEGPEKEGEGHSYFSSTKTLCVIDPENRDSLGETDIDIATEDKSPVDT
For series [6], the species on record is Homo sapiens. Kind of series: Inhibition of human recombinant PDE4A1A using FAM-cAMP as substrate at 10 uM measured after 1 hr by IMAP TR-FRET assay.
Series [7] can be described thus: Chemical stability of the compound in KCl/HCl buffer at pH 2.0 measured upto 120 mins by HPLC-DAD analysis. The note with it: pH 2, 2 h.
For series [8], the system named is Mus musculus. Kind of series: Antiinflammatory activity against A/J mouse assessed as decrease in LPS-induced airway hyperreactivity at 6.25 umol/kg, po treated via gavage for 1 hr before LPS stimulation measured after 24 hrs by whole body plethysmography relative to control. The note with it: 25 h. The series is classed as functional.
The species entered for series [9] is Homo sapiens. Nature of the series: Inhibition of human recombinant PDE4A1A using FAM-cAMP as substrate measured after 1 hr by IMAP TR-FRET assay relative to control.
For series [10], the target named is T1, 3',5'-cyclic-AMP phosphodiesterase 4D. Kind of series: Inhibition of human recombinant PDE4D3 using FAM-cAMP as substrate measured after 1 hr by IMAP TR-FRET assay.
Series [11] relates to Mus musculus. Nature of the series: Antiinflammatory activity against A/J mouse assessed as decrease in LPS-induced TNFalpha production in lungs at 6.25 umol/kg, po treated via gavage for 1 hr before LPS stimulation and measured after 24 hrs by ELISA relative to control. The series is classed as functional. As to conditions: 25 h. (In general: ELISA stands for enzyme-linked immunosorbent assay.)

Series [12] relates to Mus musculus. Nature of the series: Antiinflammatory activity against A/J mouse assessed as decrease in LPS-induced TNFalpha production in lungs at 25 umol/kg, po treated via gavage for 1 hr before LPS stimulation and measured after 24 hrs by ELISA relative to control. The series is classed as functional. The note with it: 25 h.
Series [13] has as its system Mus musculus. Nature of the series: Antiinflammatory activity against A/J mouse assessed as decrease in LPS-induced airway hyperreactivity at 25 umol/kg, po treated via gavage for 1 hr before LPS stimulation measured after 24 hrs by whole body plethysmography relative to control. The format is functional. The note with it: 25 h.
Series [14] deals with T1, 3',5'-cyclic-AMP phosphodiesterase 4D. Kind of series: Inhibition of human recombinant PDE4D3 using FAM-cAMP as substrate measured after 1 hr by IMAP TR-FRET assay relative to control.
The nature of series [15]: in vitro. As to conditions: PAMPA. On the technique in general: In PAMPA a lipid-coated filter parts donor from acceptor wells.
Series [16] in a line: Inhibition of human recombinant PDE4A1A using FAM-cAMP as substrate measured after 1 hr by IMAP TR-FRET assay.
Series [17] relates to Trachea. Nature of the series: […] activity in non-sensitized guinea pig-derived trachea assessed as decrease in CCh-induced tracheal tonic contraction in absence of functional epithelium treated with compound after contraction stabilised. The series is classed as tissue-based. The note with it: Cavia porcellus.
Series [18] relates to Trachea. Nature of the series: […] activity in OVA-sensitized guinea pig-derived trachea assessed as decrease in CCh-induced tracheal tonic contraction in presence of functional epithelium treated with compound after contraction stabilised. The note with it: Cavia porcellus. The series is classed as tissue-based.
The subject of series [19] is Trachea. Nature of the series: […] activity in OVA-sensitized guinea pig-derived trachea assessed as decrease in CCh-induced tracheal tonic contraction in absence of functional epithelium treated with compound after contraction stabilised. The series is classed as tissue-based. As to conditions: Cavia porcellus.
In series [20] the test system is Trachea. Kind of series: […] activity in non-sensitized guinea pig-derived trachea assessed as decrease in CCh-induced tracheal tonic contraction in presence of functional epithelium. The format is tissue-based. As to conditions: Cavia porcellus.

Take `O=C(O)Cc1ccccc1Nc1c(Cl)cccc1Cl` [DICLOFENAC]: the Drug absorption in series [1] is 99.28%.
The term inhibition denotes the change of the read-out against control, counted positive when it falls. For `COc1ccc(CCNS(=O)(=O)c2ccc3ccccc3c2)cc1OC`, the Stabilty entry in [2] and in series [7] was “Stable” each time. The inhibition in [3] was 9.1%; in series [4], 12.1%; in series [5], < 5%; in series [6], 30.4%.
Take `COc1ccc(CCNS(=O)(=O)c2ccc(OC)c(OC)c2)cc1OC`: the Stabilty result in series [2] and in [7] was “Stable” throughout. The inhibition in series [3] was 13.6%; in [4], 26%; in [5], < 5%; in series [6], 11.3%.
For `COc1ccc(/C=N/N(C)S(=O)(=O)c2ccccc2C)cc1OC`, the Stabilty entry in [2] is “Stable”; in series [7], “Unstable”. For the same compound, the inhibition was 26.1% in series [3], 39.3% in series [4], < 5% in series [5] and 16.2% in series [6].
Take `COc1ccc(/C=N/NS(=O)(=O)c2ccccc2C)cc1OC`: the figures for the Stabilty entry in [2] and in [7] were “Stable” and “Unstable”, respectively. Moreover, the inhibition was 15.9% in [3], 19.5% in [4], < 5% in [5] and 8% in series [6].
The inhibition in vivo is the share of the control response that was lost under treatment. As usually defined, the Emax is the size of the effect at its maximum, as opposed to the concentration needed. One may read the IC50 as the concentration that inhibits the measured activity by half. For `COc1ccc(CCN(C)S(=O)(=O)c2ccc(-c3ccccc3)cc2)cc1OC`, the inhibition in vivo at 6.25 µmol/kg in [8] worked out at 95%; in series [11] it was 22.2%. Further, the Stabilty result in [2] and in series [7] was “Stable” in each case. For the same compound, the figures for the Emax in [9] and in series [14] were 65% and 60%, respectively. For the same compound, the 50% inhibitory concentration (IC50) in series [10] amounted to 20800 nM. The inhibition in series [3] stood at 56.3%; in [4] it was 26.6%; in series [5], 7.1%; in series [6] it was 46.8%. Besides, the inhibition in vivo at 25 µmol/kg in series [12] came to 55.1%; in [13], 80%.
In the case of `COc1ccc(CCN(C)S(=O)(=O)c2ccc([N+](=O)[O-])cc2)cc1OC`, the Stabilty result in series [2] and in series [7] was “Stable” in each case. For the same compound, the inhibition was < 5% in [3], 19% in series [4], < 5% in series [5] and < 5% in series [6].
Consider `COc1ccc(/C=N/NS(=O)(=O)c2ccccc2)cc1OC`, for which the Stabilty entry is given as “Stable” in [2] and “Unstable” in [7]. Besides, the inhibition in [3] was < 5%; in [4], 14.6%; in [5], < 5%; in series [6], 11.9%.
As to `COc1ccc(S(=O)(=O)NCCc2ccc(OC)c(OC)c2)cc1`, the Stabilty entry in series [2] and in series [7] was “Stable” each time. In addition, the inhibition in series [3] is 23.8%; in series [4] it was 20.7%; in series [5], < 5%; in [6], 11%.
Regarding `CNC(=C[N+](=O)[O-])NCCSCc1ccc(CN(C)C)o1` [RANITIDINE], the Drug absorption in series [1] came to 13.48%.
The term Papp denotes a coefficient for how fast a substance crosses the barrier. Read a low Papp as poor permeation. As for `C[C@]12C=CC(=O)C=C1CC[C@@H]1[C@@H]2C(=O)C[C@@]2(C)[C@H]1CC[C@]2(O)C(=O)CO` [PREDNISONE], in [15], the Papp at 8 h turned out to be 3.09 ×10⁻⁶ cm/s.
For the compound `COc1ccc(CCN(C)S(=O)(=O)c2ccc3ccccc3c2)cc1OC`, the inhibition in vivo at 6.25 µmol/kg was 95% in series [8] and 0% in [11]. Also, the Stabilty entry in series [2] and in series [7] was “Stable” each time. Moreover, the Emax in series [9] worked out at 97%; in [14] it was 63%. Besides, the IC50 in [10] was determined as 35300 nM; in series [16] it was 3000 nM. Besides, the inhibition in series [3] amounted to 50.1%; in series [4], 30.1%; in series [5], 12.2%; in series [6], 89.9%. The inhibition in vivo at 25 µmol/kg in series [12] was determined as 58.9%; in series [13] it was 97%.
In [15], `O=c1ccc2ccccc2o1` [COUMARIN] came in with a Papp at 8 h of 22.6 ×10⁻⁶ cm/s. In [1], this compound displayed a Drug absorption of 99.98%.
In the case of `COc1ccc(S(=O)(=O)N/N=C/c2ccc(OC)c(OC)c2)cc1`, the figures for the Stabilty entry in series [2] and in [7] were “Stable” and “Unstable”, respectively. Moreover, the inhibition in [3] was 20.2%; in series [4], 40.2%; in series [5] it was < 5%; in series [6] it was 35.2%.
As for `COc1ccc(S(=O)(=O)N(C)/N=C/c2ccc(OC)c(OC)c2)cc1`, the Stabilty entry was “Stable” in series [2] and “Unstable” in series [7]. Also, the inhibition is 12.8% in series [3], 43% in series [4], < 5% in series [5] and 31.5% in [6].
Regarding `COc1ccc(CCNS(=O)(=O)c2ccc(-c3ccccc3)cc2)cc1OC`, the Stabilty entry in series [2] and in series [7] was “Stable” each time. The inhibition was 10.8% in series [3], < 5% in [4], < 5% in series [5] and 14.8% in series [6].
`Nc1nc2c(ncn2COCCO)c(=O)[nH]1` [ACYCLOVIR] came in with a Papp at 8 h in series [15] of 0.08 ×10⁻⁶ cm/s.
Consider `COc1ccc(CCNS(=O)(=O)c2ccc([N+](=O)[O-])cc2)cc1OC`, for which the Stabilty result in series [2] and in series [7] was “Stable” in each case. Also, the inhibition was < 5% in series [3], < 5% in [4], 13.8% in series [5] and < 5% in series [6].
As for `COc1ccc(CCN(C)S(=O)(=O)c2ccc(OC)c(OC)c2)cc1OC`, the Stabilty result in [2] and in series [7] was “Stable” throughout. Moreover, the inhibition in [3] is 31.1%; in series [4], 16.4%; in series [5], 12%; in series [6] it was 36.1%.
As usually defined, the EC50 is the concentration that produces a half-maximal response. `COc1ccc(C2CNC(=O)C2)cc1OC1CCCC1` (centres undefined) [ROLIPRAM]: the EC50 in [17] is 64.6 nM; in series [18], 31.6 nM; in series [19] it was 69.2 nM; in [20], 26.3 nM.
As to `COc1ccc(/C=N/NS(=O)(=O)c2cc3c(cc2C)OCO3)cc1OC`, the Stabilty result in series [2] was “Stable”; in series [7], “Unstable”. Also, the inhibition was 8.8% in series [3], < 5% in series [4], < 5% in [5] and < 5% in [6].
Regarding `COc1ccc(CCNS(=O)(=O)c2ccccc2C)cc1OC`, the Stabilty result in series [2] and in series [7] was “Stable” throughout. The inhibition is < 5% in [3], < 5% in series [4], < 5% in series [5] and 6.1% in series [6].
In the case of `COc1ccc(/C=N/NS(=O)(=O)c2ccc(C(F)(F)F)cc2)cc1OC`, the Stabilty result was “Stable” in series [2] and “Unstable” in [7]. Further, the inhibition in series [3] is 19.7%; in series [4] it was 29%; in series [5] it was < 5%; in series [6], < 5%.
With `COc1ccc(S(=O)(=O)N(C)CCc2ccc(OC)c(OC)c2)cc1`, the Stabilty result in [2] and in series [7] was “Stable” each time. The inhibition in series [3] is 35.6%; in series [4], 23.5%; in series [5], 33%; in [6], 43%.
As for `COc1ccc(CCN(C)S(=O)(=O)c2ccccc2C)cc1OC`, the Stabilty entry in series [2] and in [7] was “Stable” each time. In addition, the inhibition is 27.6% in series [3], < 5% in series [4], 26.5% in [5] and 25.9% in series [6].
